“Also recorded” adds a separate entry of the source. A value given as a limit tells only on which side of the number the result lay.

In experiment [1] the target is T1, recombinant human IDE (Homo sapiens, UniProt P14735). Nature of the experiment: IDE activity assay, degradation of fluorogenic peptide substrate FRET1. Particulars: for activity against IDE in words: FRET1 assay; for Ki: n = 3. It counts as biochemical.
In experiment [2] the test system is neprilysin (NEP), endothelin-converting enzyme-1 (ECE1), ACE, and MMP-2 and -7. Nature of the experiment: Zinc-metalloprotease selectivity panel versus IDE, common substrate OmniMMP. The experiment is classed as biochemical.
For experiment [3], the target named is T1, recombinant human IDE. Particulars: cited from earlier work.
Experiment [4] has as its target T1, recombinant human IDE. As to conditions: cited from earlier work. The source holds these as a separate data set.
Experiment [5] addresses T1, recombinant human IDE. Particulars: cited from earlier work. The source holds these as a separate data set.
For a further experiment, the target named is T2, MMP7 (Homo sapiens, UniProt P09237).
T2 sequence (P09237 95-267): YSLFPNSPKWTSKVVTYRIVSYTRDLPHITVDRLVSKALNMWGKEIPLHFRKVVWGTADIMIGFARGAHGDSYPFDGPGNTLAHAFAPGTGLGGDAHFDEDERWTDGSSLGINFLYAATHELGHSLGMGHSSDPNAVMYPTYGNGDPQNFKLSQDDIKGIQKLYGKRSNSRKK
Nature of the experiment: Zinc-metalloprotease selectivity dose-response, common substrate OmniMMP: MMP7. The experiment is classed as biochemical. As to conditions: Figure 3 dose-response curves.

The target of experiment [6] is T1, recombinant human IDE. Nature of the experiment: IDE activity assay, insulin degradation. The experiment is classed as biochemical.
In experiment [7] the target is T1, recombinant human IDE. Nature of the experiment: IDE activity assay, Aß degradation. It counts as biochemical.

T1 sequence (P14735 whole entry): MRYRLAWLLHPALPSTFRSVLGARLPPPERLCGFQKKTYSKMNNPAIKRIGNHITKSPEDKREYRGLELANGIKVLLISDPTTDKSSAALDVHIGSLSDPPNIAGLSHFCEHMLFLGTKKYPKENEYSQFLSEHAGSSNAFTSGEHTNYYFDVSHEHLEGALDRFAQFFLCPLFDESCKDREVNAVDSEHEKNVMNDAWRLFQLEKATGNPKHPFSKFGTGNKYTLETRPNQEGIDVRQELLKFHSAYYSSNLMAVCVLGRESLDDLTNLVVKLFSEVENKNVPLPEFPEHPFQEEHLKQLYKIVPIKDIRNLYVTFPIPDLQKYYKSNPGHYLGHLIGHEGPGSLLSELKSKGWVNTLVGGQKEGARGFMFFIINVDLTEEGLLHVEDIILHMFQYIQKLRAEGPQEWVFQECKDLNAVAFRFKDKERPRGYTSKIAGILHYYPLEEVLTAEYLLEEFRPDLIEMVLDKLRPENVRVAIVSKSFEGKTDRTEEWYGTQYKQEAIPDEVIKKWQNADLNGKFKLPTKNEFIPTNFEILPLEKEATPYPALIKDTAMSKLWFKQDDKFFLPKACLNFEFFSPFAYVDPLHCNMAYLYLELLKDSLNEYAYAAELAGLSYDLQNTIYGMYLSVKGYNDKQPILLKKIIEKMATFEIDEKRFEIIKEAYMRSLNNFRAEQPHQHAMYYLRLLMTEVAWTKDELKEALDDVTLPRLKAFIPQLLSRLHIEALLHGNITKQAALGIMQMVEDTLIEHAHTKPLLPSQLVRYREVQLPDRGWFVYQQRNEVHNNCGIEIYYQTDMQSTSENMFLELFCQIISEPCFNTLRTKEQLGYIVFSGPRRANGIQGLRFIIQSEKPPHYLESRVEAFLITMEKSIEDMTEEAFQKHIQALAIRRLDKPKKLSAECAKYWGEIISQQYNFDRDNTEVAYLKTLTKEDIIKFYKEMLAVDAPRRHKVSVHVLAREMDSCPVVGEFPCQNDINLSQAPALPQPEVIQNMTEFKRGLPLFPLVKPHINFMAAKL

Take `N=C(N)NCCC[C@H](NC(=O)C(CC(=O)NO)Cc1ccc2ccccc2c1)C(N)=O` (stereo in doubt) [inhibitor 9b, (R)-N^1-((S)-1-amino-5-guanidino-1-oxopentan-2-yl)-N^4-hydroxy-2-(naphthalen-2-ylmethyl)succinamide]: the “activity against IDE in words” value on recombinant human IDE [1] is “inactive”.

Turning to `C=CCOC(=O)[C@H](CCCNC(=N)N)NC(=O)C(CC(=O)NO)Cc1ccc2ccccc2c1` (stereo in doubt) [inhibitor 14a, (S)-Allyl5-guanidino-2-((S)-4-(hydroxyamino)-2-(naphthalen-2-ylmethyl)-4-oxobutanamido)pentanoate], the “fold more potent than the parent amide, 9a” value on recombinant human IDE [1] (ki, FRET1) is ~ 13 fold. The “fold more potent against IDE vis-à-vis the other proteases tested” value in experiment [2] (OmniMMP substrate) was above 100 fold.

In the case of `Nc1ncnc2c1ncn2[C@@H]1O[C@H](COP(=O)(O)OP(=O)(O)OP(=O)(O)O)[C@@H](O)[C@H]1O` [ATP], the “effect on degradation of FRET1 by IDE” value on recombinant human IDE [3] was “profoundly activates”. For the same compound, the “effect on degradation of Aß by IDE” value on recombinant human IDE [4] is “inhibits”. At recombinant human IDE [5], the “effect on degradation of insulin by IDE” value was “inhibits”.

For `N=C(N)NCCC[C@H](NC(=O)[C@@H](CC(=O)NO)Cc1ccc2ccccc2c1)C(=O)N[C@@H](Cc1c[nH]c2ccccc12)C(=O)N[C@@H](CCC(=O)O)C(N)=O` [inhibitor 1a], the “MMP7 inhibition in words” value on MMP7 was “rather potently inhibited”.

As to `N=C(N)NCCC[C@@H](NC(=O)[C@@H](Cc1c[nH]c2ccccc12)NC(=O)[C@H](N)CCC(=O)O)C(=O)N[C@@H](CC(=O)NO)Cc1ccc2ccccc2c1` [inhibitor 15, Glu-Trp-Arg-2Nap-Hx], the “fold higher ki^app for insulin degradation relative to FRET1” value on recombinant human IDE [6] (derived from Table 5) is on record as above 60 fold.

For the compound `CC(=O)N[C@H](CCC(=O)NCCNc1cccc2c(S(=O)(=O)O)cccc12)C(=O)N[C@H](Cc1ccc(O)cc1)C(=O)N[C@H](Cc1ccc(C(=O)c2ccccc2)cc1)C(=O)N[C@@H](CC(=O)NO)Cc1ccc2ccccc2c1` [inhibitor 17, Ac-Glu(EDANS)-Tyr-Bpa-2Nap-Hx], at recombinant human IDE [7] (derived from Table 5), the “fold lower ki^app for Aß degradation relative to insulin degradation” value is given as ~ 300 fold and the “fold lower ki^app for Aß degradation relative to ki for FRET1 degradation” value is reported as above 30 fold.

As for “(2R,3S)-N^1-((S)-1-Amino-5-guanidino-1-oxopentan-2-yl)-N^4,3-dihydroxy-2-(naphthalen-2-ylmethyl)succinamide [inhibitor 12a]”, the “activity against IDE in words” value at recombinant human IDE [1] is “abolish activity; also recorded: substantial decreases in potency”.

“(2S,3R)-N^1-((S)-1-amino-5-guanidino-1-oxopentan-2-yl)-N^4,3-dihydroxy-2-(naphthalen-2-ylmethyl)succinamide [inhibitor 12b]”: on recombinant human IDE [1], the “activity against IDE in words” value is listed as “abolish activity; also recorded: substantial decreases in potency”.

For “(S)-5-Amino-4-((S)-2-((S)-5-guanidino-2-((2S,3R)-3-hydroxy-4-(hydroxyamino)-2-(naphthalen-2-ylmethyl)-4-oxobutanamido)pentanamido)-3-(1H-indol-2-yl)propanamido)-5-oxopentanoic acid [inhibitor 8b]”, the Ki on recombinant human IDE [1] (read-out: ki (nM) (FRET1), Table 1, FRET1 5 μM, 22 °C) is 103 ± 6.9 nM; at recombinant human IDE [1] (read-out: ki, nM (FRET1), Table 2, truncation, FRET1 5 μM) it was 103 ± 7 nM; on recombinant human IDE [1] (read-out: ki^app, nM FRET1, Table 5, substrate FRET1 5 μM), 103 ± 7 nM; at recombinant human IDE [7] (read-out: ki^app, nM FAßB, Table 5, substrate Aß 200 nM, n = 3) it was 927 ± 120 nM; at recombinant human IDE [6] (read-out: ki^app, nM Insulin, Table 5, substrate insulin 2 nM, n = 3), 1890 ± 410 nM. In addition, the “inhibition of the other proteases tested, in words” value in experiment [2] (concentrations up to 10 μM) is on record as “no or only partial inhibition”.

Values taken from paper PMC10165945 (Journal of medicinal chemistry, 2013).
